According to patent US9062078B2, “Substituted 7-azabicyles and their use as orexin receptor modulators” (priority 2013, dated 2015):
Read-outs that look alike come from different tables or passages of the source.

Experiments:
[1] = biological target: human orexin 1 receptor (Homo sapiens (Human), UniProt O43613); assay: Human orexin 1 receptor radioligand binding (competitive, [3H]-SB674042, CHO cell preparations)
[2] = biological target: human orexin 2 receptor (Homo sapiens (Human), UniProt O43614); assay: Human orexin 2 receptor radioligand binding (competitive, [3H]-EMPA, HEK293 cell preparations)
[3] = biological target: rat orexin 1 receptor (Rattus norvegicus, UniProt P56718); assay: Rat orexin 1 receptor radioligand binding (competitive, [3H]-SB674042, HEK293 cell preparations)
[4] = human orexin 2 receptor, [3H]-EMPA competition binding, read-out: hOX2 Ki (nm)
[5] = human orexin 1 receptor, [3H]-SB674042 competition binding, read-out: hOX1 Ki (nm)
[6] = rat orexin 1 receptor, [3H]-SB674042 competition binding, read-out: rOX1 Ki (nm)

Chain of human orexin 1 receptor (O43613 whole entry): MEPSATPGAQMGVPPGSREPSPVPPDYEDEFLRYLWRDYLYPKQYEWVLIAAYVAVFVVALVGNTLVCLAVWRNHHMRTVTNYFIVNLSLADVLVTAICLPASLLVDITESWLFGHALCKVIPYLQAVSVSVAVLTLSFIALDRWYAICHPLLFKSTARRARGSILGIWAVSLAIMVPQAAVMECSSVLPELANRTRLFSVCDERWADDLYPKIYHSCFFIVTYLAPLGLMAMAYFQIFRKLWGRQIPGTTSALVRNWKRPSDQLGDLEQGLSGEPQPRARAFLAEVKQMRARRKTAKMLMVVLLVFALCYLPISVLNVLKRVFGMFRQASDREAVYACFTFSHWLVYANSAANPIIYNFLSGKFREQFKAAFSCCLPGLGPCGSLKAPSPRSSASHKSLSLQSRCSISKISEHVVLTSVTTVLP
Chain of human orexin 2 receptor (O43614 whole entry): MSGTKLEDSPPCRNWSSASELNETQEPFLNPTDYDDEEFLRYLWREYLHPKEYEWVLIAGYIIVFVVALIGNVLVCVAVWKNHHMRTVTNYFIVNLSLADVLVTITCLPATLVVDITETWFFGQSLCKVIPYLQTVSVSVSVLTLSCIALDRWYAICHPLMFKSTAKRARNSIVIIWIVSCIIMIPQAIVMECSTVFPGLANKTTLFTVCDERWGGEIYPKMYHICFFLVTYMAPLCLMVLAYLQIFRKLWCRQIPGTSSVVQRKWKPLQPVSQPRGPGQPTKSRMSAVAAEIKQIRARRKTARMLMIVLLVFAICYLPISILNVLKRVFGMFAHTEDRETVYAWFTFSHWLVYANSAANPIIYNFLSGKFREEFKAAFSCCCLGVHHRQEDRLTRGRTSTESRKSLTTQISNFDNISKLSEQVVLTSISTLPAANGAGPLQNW

Row | SMILES | Ki ([1]; hOX1 Ki (nm)) [nM] | Ki [2, 4] [nM] | Ki ([3]; rOX1 Ki (nm)) [nM] | Ki [1, 5] [nM] | Ki ([2]; hOX2 Ki (nm)) [nM] | Ki [3, 6] [nM]
1 | Cc1ccc(-n2nccn2)c(C(=O)N2C3CCC2C(COc2ncccc2C)C3)n1 (racemic) [Example 55, (±)-(6-methyl-3-(2H-1,2,3-triazol-2-yl)pyridin-2-yl)(2-(((3-methylpyridin-2-yl)oxy)methyl)-7-azabicyclo[2.2.1]heptan-7-yl)methanone] | 150 | 202 | 119 | – | – | –
2 | Cc1ccc(-n2nccn2)c(C(=O)N2C3CCC2C(COc2cccnc2)C3)n1 (racemic) [Example 58, (±)-(6-methyl-3-(2H-1,2,3-triazol-2-yl)pyridin-2-yl)(2-((pyridin-3-yloxy)methyl)-7-azabicyclo[2.2.1]heptan-7-yl)methanone] | 117 | 2400 | 88 | – | – | –
3 | Cc1cccc(OCC2CC3CCC2N3C(=O)c2nc(C)ccc2-n2nccn2)n1 (racemic) [Example 62, (±)-(6-methyl-3-(2H-1,2,3-triazol-2-yl)pyridin-2-yl)(2-(((6-methylpyridin-2-yl)oxy)methyl)-7-azabicyclo[2.2.1]heptan-7-yl)methanone] | – | – | – | 46 | 188 | 74
4 | Cc1ccc(-c2ncco2)c(C(=O)N2C3CCC2C(COc2ccc(F)cn2)C3)n1 (racemic) [Example 63, (±)-(2-(((5-fluoropyridin-2-yl)oxy)methyl)-7-azabicyclo[2.2.1]heptan-7-yl)(6-methyl-3-(oxazol-2-yl)pyridin-2-yl)methanone] | – | 339 | – | 25 | – | 25
5 | Cc1ccc(-c2ncccn2)c(C(=O)N2C3CCC2C(COc2ccc(F)cn2)C3)n1 (racemic) [Example 64, (±)-(2-(((5-fluoropyridin-2-yl)oxy)methyl)-7-azabicyclo[2.2.1]heptan-7-yl)(6-methyl-3-(pyrimidin-2-yl)pyridin-2-yl)methanone] | – | 81 | – | 24 | – | 18
6 | Cc1ccc(-c2nc(C)no2)c(C(=O)N2C3CCC2C(COc2ccc(F)cn2)C3)n1 (racemic) [Example 66, (±)-(2-(((5-fluoropyridin-2-yl)oxy)methyl)-7-azabicyclo[2.2.1]heptan-7-yl)(6-methyl-3-(3-methyl-1,2,4-oxadiazol-5-yl)pyridin-2-yl)methanone] | – | 620 | – | 293 | – | 197
7 | Cc1ccc(-n2ccc(C)n2)c(C(=O)N2C3CCC2C(COc2ccc(F)cn2)C3)n1 (racemic) [Example 67, (±)-(2-(((5-fluoropyridin-2-yl)oxy)methyl)-7-azabicyclo[2.2.1]heptan-7-yl)(6-methyl-3-(3-methyl-1H-pyrazol-1-yl)pyridin-2-yl)methanone] | – | 258 | – | 69 | – | 48
8 | Cc1ccc(N2CCCC2)c(C(=O)N2C3CCC2C(COc2ccc(F)cn2)C3)n1 (racemic) [Example 68, (±)-(2-(((5-fluoropyridin-2-yl)oxy)methyl)-7-azabicyclo[2.2.1]heptan-7-yl)(6-methyl-3-(pyrrolidin-1-yl)pyridin-2-yl)methanone] | – | 576 | – | 22 | – | 27
9 | Cc1cc(-c2ccc(C)nc2C(=O)N2C3CCC2C(COc2ccc(F)cn2)C3)on1 (racemic) [Example 69, (±)-(2-(((5-fluoropyridin-2-yl)oxy)methyl)-7-azabicyclo[2.2.1]heptan-7-yl)(6-methyl-3-(3-methylisoxazol-5-yl)pyridin-2-yl)methanone] | 64 | 174 | 40 | – | – | –
10 | Cc1ccc(-n2cccn2)c(C(=O)N2C3CCC2C(COc2ccc(F)cn2)C3)n1 (racemic) [Example 70, (±)-(2-(((5-fluoropyridin-2-yl)oxy)methyl)-7-azabicyclo[2.2.1]heptan-7-yl)(6-methyl-3-(1H-pyrazol-1-yl)pyridin-2-yl)methanone] | – | 624 | – | 62 | – | 88
